Results reported in patent publication US20250341526A1, “NOVEL DYES” (Quantum-Si Incorporated, priority 2024, published 2025).

B1: Escherichia coli leucyl/phenylalanyl-tRNA-protein transferase: amino acid recognition protein, SEQ ID NO: 111 (protein, listed as Escherichia coli)
chain: MRLVQLSRHSIAFPSPEGALREPNGLLALGGDLSPARLLMAYQRGIFPWFSPGDPILWWSPDPRAVLWPESLHISRSMKRFHKRSPYRVTMNYAFGQVIEGCASDREEGTWITRGVVEAYHRLHELGHAHSIEVWREDELVGGMYGVAQGTLFCGESMFSRMENASKTALLVFCEEFIGHGGKLIDCQVLNDHTASLGACEIPRRDYLNYLNQMRLGRLPNNFWVPRCLFSPQELE

Tests used:
[1] = Persistence of triplet state quenchers in solution; type: physicochemical
From the text: FIGS. 11A-11B show the persistence of cyclooctatetraene (FIG. 11A) and COT-PEG3-sulfonate (triethylammonium salt) (FIG. 11B) in solution.
Cyclooctatetraene (COT)-based triplet state quenchers (TSQs) were used in place of or in addition to the currently used Trolox TSQ. TSQs can enhance photophysical properties of dyes in single-molecule studies, and the optimal TSQ can depend on the class of dye used. Trolox and COT quench triplet states by different mechanisms.
Water-soluble COT conjugates were made to improve solution stability of these TSQs (FIG. 11). The derivatives were made via various amide coupling reactions between COT-CO2H and the appropriate amine. COT-CO2H can be purchased or made in two steps from the parent COT compound.

[2] = test system: amino acid at a terminal position of a polypeptide; conditions: Table 2; amino acid at terminal position (phosphotyrosine also internal); inferred from literature and/or demonstrated by the inventors; cited from earlier work

Molecule	stability (persistence) in solution ([1]; also in the presence of mineral oil)	water solubility ([1]; sequencing buffer)	Binding Pref. [2]
C1=CC=CC=CC=C1 [unsubstituted COT, cyclooctatetraene]	its concentration drops over time	not fully water-soluble	
B1			K, R
